Reference: US7629368B2, “Nitroderivatives as drugs for diseases having an inflammatory basis” (Nicox S.A., priority 2000, dated 2009)
Structures can show the parent of a compound that is named as a salt.

Columns and labels:
[1] = test system: liver injury induced by concanavalin A; assay: Protection from liver injury induced by concanavalin A; assay type: in vivo; conditions: ip, plasmatic glutamic-pyruvic transaminase vs treated control group (=100), 8 hours after concanavalin A 0.3 mg/rat i.v.; for response vs control in vivo at 300 mg/kg: 300 mg/kg intraperitoneal; for response vs control in vivo at 500 mg/kg: 500 mg/kg intraperitoneal; for response vs control in vivo at 200 mg/kg: 200 mg/kg intraperitoneal
Description: Determination of the capability of the compounds of the invention to protect the animals from the liver injury induced by concanavalin A.
The model in vivo used in the present example has been described in Tiegs G, Hentshel J, A Wendel. A T cell-dependent experimental liver injury in mice induced by Concanavalin A. J. Clin. Invest. 1992; 90:196-203.
The animals ([…] of Swiss stock weighing about 20 g) are divided in groups of at least No. 10 animals for group.
The animals receive concanavalin and solvent (treated control group), solvent (polyethylene glycol 400-untreated control group), concanavalin and tested compound dissolved in the solvent (treated groups).
Rats are treated intravenously with concanavalin A (0.3 mg/rat), and after 5 minutes they receive by intraperitoneal injection the tested compounds, at the doses reported in Table 1, dissolved in polyethylenglycol 400.
Eight hours after the concanavalin A injection all the animals were sacrificed and the blood collected and examined. The data, reported in Table 1, are expressed as value of the plasmatic glutamic-pyruvic transaminase percentage of the animals treated with the tested compound with respect to the animals of the treated control group.

[2] = test system: Human adenocarcinoma (HT29) cells; assay: Antiproliferative activity in cancerous cells, cellular growth by haemocytometer; assay type: cell-based; conditions: 96 hours, controls = 100, read-out: Proliferation %
Procedure: Determination of the Antiproliferative Activity of the Compounds of the Invention in Cancerous Cells.
Human adenocarcinoma (HT29) cells taken from colon affected by cancerous process were transferred into plates with 24 wells containing a cellular culture medium formed by 10% of foetal bovine serum, penicillin (50 U/ml), streptomycin ([…]) and PEG 400 (polyethylenglycol). After 24 hours a part of the plates is inoculated with the tested compounds dissolved in the carrier (PEG 400). 96 hours after the inoculation of the compounds the cellular growth was measured by haemocytometer. The results, reported in Table 2, are expressed as percentage of the cellular proliferation with respect to the controls.

[3] = test system: Human adenocarcinoma HT29 cells; assay: 3H-timidine incorporation in human adenocarcinoma HT29 cells; assay type: cell-based; conditions: 15 hours, cells treated only with Cisplatinum = 100; for timidine incorporation, With 25 μM Cisplatinum: compound 200 μM plus Cisplatinum 25 μM; for timidine incorporation, Without Cisplatinum: compound 200 μM
Procedure: Determination In Vitro of the Effect of the Compounds of the Invention on the Timidine Incorporation in Human Adeno-Carcinoma HT29 Cells. Human adenocarcinoma cells are sown on plates having 24 wells (2.5×10^5 cells/plate) with a standard culture medium. After 24 hours some plates are inoculated with the tested compounds dissolved in dimethylsulphoxide at a 200 μM concentration and others are treated with the tested compounds dissolved in dimethylsulphoxide at a 200 μM concentration in the presence of a solution of cisplatinum 25 μM. After 15 hours of incubation the plates are put into contact with a solution of ^3H-timidine […] (RAS. 3,000 Ci/mol). The cell monolayer of each plate is first washed twice with a cold saline buffer, then treated with TCA (trichloroacetic acid) at 5% for 10 minutes and then washed three times with absolute alcohol. The cells of each well are dissolved in 500 μl of NaOH 0.1N and the incorporated radioactivity is determined by scintallation counting. The obtained results are reported in Table 4 and expressed as percentage of ^3H-Timidine incorporated in the cells treated with the tested compounds and in the presence of Cisplatinum, considering equal to 100 the amount of ^3H-Timidine incorporated in the cells treated only with Cisplatinum.

[4] = test system: PNT1A human epithelial cells of prostate cancer; assay: Antiproliferative activity, MTT, prostate cancer line PNT1A; assay type: cell-based; conditions: 96 h, 4 days, vs DMSO 1%, read-out: Inhibition of the proliferative activity (%); for inhibition at 100 µM: 10^-4 M; for inhibition at 10 µM: 10^-5 M; for inhibition at 1 µM: 10^-6 M
Procedure: (§1) Determination of the Antiproliferative Activity of the Compounds of the Invention in Cancerous Epithelial Cells of Bladder and Prostate.
(§2) The experiment was carried out by using three human epithelial cellular lines of the prostate cancer (PNT1A; LLNCaP; PC3) and three human epithelial cellular lines of the bladder cancer (T24; 647V; 1207), the various types of cellular lines are identified on the basis of the characteristics, in particular of the aggressiveness, of the cancerous process.
(§3) The cancerous cells are sown, with an initial concentration of 20,000 cells/cm^2, in plates having 96 wells with a cellular culture medium RPMI added with foetal bovine serum 5% and L-Glutamine 1%. Solutions in dimethylsulphoxide of the tested compounds at three different concentrations (10^−6 M; 10^−5M; 10^−4M) or the carrier (DMSO 1%) are added to the culture medium. 4 days after the treatment the cellular growth was measured by the method with MTT (3-[4,5-dimethylthiazol-2-yl]-2,5-diphenyltetrazolium bromide) de-scribed by Turner in: Turner T., Chen P., Goodly L. J., Wells A. Clin. Exp. Metastasis 1996, 14, 409-418. The results, reported in Table 3, are expressed as inhibition percentage of the cellular proliferation determined by measuring the cellular proliferation in the cellular cultures treated with the tested compounds with respect to that measured in cellular cultures treated with dimethylsulphoxide 1%.

[5] = test system: LNCaP human epithelial cells of prostate cancer; assay: Antiproliferative activity, MTT, prostate cancer line LNCaP; assay type: cell-based; conditions: 96 h, 4 days, vs DMSO 1%, read-out: Inhibition of the proliferative activity (%); for inhibition at 100 µM: 10^-4 M; for inhibition at 10 µM: 10^-5 M; for inhibition at 1 µM: 10^-6 M
Procedure: as §1, §2, §3

[6] = test system: PC3 human epithelial cells of prostate cancer; assay: Antiproliferative activity, MTT, prostate cancer line PC3; assay type: cell-based; conditions: Epithelial cell, 96 h, 4 days, vs DMSO 1%, read-out: Inhibition of the proliferative activity (%); for inhibition at 100 µM: 10^-4 M; for inhibition at 10 µM: 10^-5 M; for inhibition at 1 µM: 10^-6 M
Procedure: as §1, §2, §3

[7] = test system: T24 human epithelial cells of bladder cancer; assay: Antiproliferative activity, MTT, bladder cancer line T24; assay type: cell-based; conditions: Epithelial cell, 96 h, 4 days, vs DMSO 1%, read-out: Inhibition of the proliferative activity (%); for inhibition at 100 µM: 10^-4 M; for inhibition at 10 µM: 10^-5 M; for inhibition at 1 µM: 10^-6 M
Procedure: as §1, §2, §3

[8] = test system: 647V human epithelial cells of bladder cancer; assay: Antiproliferative activity, MTT, bladder cancer line 647V; assay type: cell-based; conditions: 96 h, 4 days, vs DMSO 1%, read-out: Inhibition of the proliferative activity (%); for inhibition at 100 µM: 10^-4 M; for inhibition at 10 µM: 10^-5 M; for inhibition at 1 µM: 10^-6 M
Procedure: as §1, §2, §3

[9] = test system: 1207 human epithelial cells of bladder cancer; assay: Antiproliferative activity, MTT, bladder cancer line 1207; assay type: cell-based; conditions: Epithelial cell, 96 h, 4 days, vs DMSO 1%, read-out: Inhibition of the proliferative activity (%); for inhibition at 100 µM: 10^-4 M; for inhibition at 10 µM: 10^-5 M; for inhibition at 1 µM: 10^-6 M
Procedure: as §1, §2, §3

[10] = test system: human epithelial cellular lines of the prostate cancer and of the bladder cancer; assay: Antiproliferative activity in prostate and bladder cancer lines, summary in words; assay type: cell-based; conditions: cellular lines LNCaP and PC3, and 647V, 1207
Procedure: as §2, §3
The compound of Ex. 7, reported in the Table with the simplified denomination of nitrooxybutyl ester of the aspirin der. with ferulic ac. is active, at 10^−5 concentrations, in prostate tumours as shown by the results obtained on the cellular lines LNCaP and PC3.

## CC(=O)Oc1ccccc1C(=O)O [Aspirin, Acetylsalicylic Acid, reference compound]
[1]
  response vs control in vivo at 300 mg/kg: 120%
[2]; HT-29, 500 μM
  activity at 500 µM: 100%
[3]
  timidine incorporation, With 25 μM Cisplatinum: 100%
  timidine incorporation, Without Cisplatinum: 438%

## CC(=O)Oc1ccccc1C(=O)OCc1cccc(CO[N+](=O)[O-])n1 [Ex. 1, 2-acetyloxybenzoic acid 6-(nitrooxymethyl)-2-methylpyridinyl ester hydrochloride]
[2]; HT-29, 10 μM
  activity at 10 µM: 0%

## CC(=O)Oc1ccccc1C(=O)OCc1ccc(CO[N+](=O)[O-])cn1 [Ex. 3, 2-acetyloxybenzoic acid 5-(nitrooxymethyl)-2-methylpyridinyl ester hydrochloride]
[1]
  response vs control in vivo at 300 mg/kg: 5%

## CC(=O)Oc1ccccc1C(=O)OCc1ncccc1CO[N+](=O)[O-] [Ex. 4, 2-acetyloxybenzoic acid 3-(nitrooxymethyl)-2-methylpyridinyl ester hydrochloride]
[1]
  response vs control in vivo at 300 mg/kg: 7%

## CC(=O)Oc1ccccc1C(=O)Oc1cccc(CO[N+](=O)[O-])c1 [Ex. 5, 3-nitrooxymethylphenyl ester of the 2-acetoxybenzoic acid]
[2]; HT-29, 300 μM
  activity at 300 µM: 40%
[3]
  timidine incorporation, With 25 μM Cisplatinum: 46%
  timidine incorporation, Without Cisplatinum: 192%

## COc1cc(/C=C/C(=O)Oc2ccc(NC(C)=O)cc2)ccc1OC(=O)CCCO[N+](=O)[O-] [Ex. 8, trans-3-[4-(4′-nitrooxybutyryloxy)-3-methoxyphenyl]-2-propenoic acid 4-(acetylamino)phenyl ester]
[1]
  response vs control in vivo at 500 mg/kg: 8%

## CC(=O)Nc1ccc(OC(=O)CCCO[N+](=O)[O-])cc1 [Ex. 9, 4-nitrooxybutanoic acid 4′-acetylamino phenyl ester]
[1]
  response vs control in vivo at 500 mg/kg: 10%

## O=C(Oc1cccc(CO[N+](=O)[O-])c1)c1ccccc1O [Ex. 15, 2-hydroxybenzoic Acid 3-(nitrooxymethyl)phenyl ester]
[3]
  timidine incorporation, With 25 μM Cisplatinum: 50%
  timidine incorporation, Without Cisplatinum: 246%

## COc1cc(/C=C/C(=O)OCCCCO[N+](=O)[O-])ccc1OC(=O)C(C)c1ccc(CC(C)C)cc1 (stereo not drawn) [Ex. 16, Trans-3-[4-[α-methyl-[4-(-2-methylpropyl)benzene]acetyloxy]-3-methoxyphenyl]-2-propenoyl 4-(nitrooxy) butyl ester]
[4]
  inhibition at 100 µM: 20%
  inhibition at 10 µM: 4%
  inhibition at 1 µM: 0%
[5]
  inhibition at 100 µM: 60%
  inhibition at 10 µM: 33%
  inhibition at 1 µM: 8%
[6]
  inhibition at 100 µM: 47%
  inhibition at 10 µM: 9%
  inhibition at 1 µM: 4%
[7]
  inhibition at 100 µM: 22%
  inhibition at 10 µM: 0%
  inhibition at 1 µM: 0%
[8]
  inhibition at 100 µM: 45%
  inhibition at 10 µM: 0%
  inhibition at 1 µM: 0%
[9]
  inhibition at 100 µM: 43%
  inhibition at 10 µM: 0%
  inhibition at 1 µM: 2%
[10]
  activity in very aggressive prostate and bladder tumours (in words): active

## COc1cc(/C=C/C(=O)OCCCCO[N+](=O)[O-])ccc1OC(=O)C(C)c1ccc(-c2ccccc2)c(F)c1 (stereo not drawn) [Ex. 17, trans-3-[4-[2-fluoro-α-methyl-(1,1′-biphenyl)-4-acetyloxy]-3-methoxyphenyl]-2-propenoyl 4-(nitrooxy) butyl ester]
[4]
  inhibition at 100 µM: 13%
  inhibition at 10 µM: 2%
  inhibition at 1 µM: 0%
[5]
  inhibition at 100 µM: 58%
  inhibition at 10 µM: 26%
  inhibition at 1 µM: 1%
[6]
  inhibition at 100 µM: 53%
  inhibition at 10 µM: 20%
  inhibition at 1 µM: 8%
[7]
  inhibition at 100 µM: 23%
  inhibition at 10 µM: 0%
  inhibition at 1 µM: 0%
[8]
  inhibition at 100 µM: 41%
  inhibition at 10 µM: 13%
  inhibition at 1 µM: 0%
[9]
  inhibition at 100 µM: 34%
  inhibition at 10 µM: 0%
  inhibition at 1 µM: 0%
[10]
  activity in very aggressive prostate and bladder tumours (in words): active

## CC1=C(CC(=O)OCc2cccc(CO[N+](=O)[O-])n2)c2cc(F)ccc2/C1=C\c1ccc([S+](C)[O-])cc1 (centres unmarked) [Ex. 19]
[1]
  response vs control in vivo at 200 mg/kg: 23%

## CC(=O)Oc1ccccc1C(=O)Oc1ccccc1CO[N+](=O)[O-] [Ex. 20, 2-acetyloxybenzoic acid 2-(nitrooxymethyl)phenyl ester]
[2]; HT-29, 20 μM
  activity at 20 µM: 50%

## CC(=O)Nc1ccc(O)cc1 [Paracetamol, reference compound]
[1]
  response vs control in vivo at 500 mg/kg: 160%

## O=C(O)c1ccccc1O [Salicylic acid, Salicylic Acid, reference compound]
[3]
  timidine incorporation, With 25 μM Cisplatinum: 100%
  timidine incorporation, Without Cisplatinum: 438%

## CC1=C(CC(=O)O)c2cc(F)ccc2/C1=C\c1ccc([S+](C)[O-])cc1 (centres unmarked) [Sulindac, reference compound]
[1]
  response vs control in vivo at 200 mg/kg: 115%
[2]; HT-29, 50 μM
  activity at 50 µM: 100%
